Tests used:
EP2 [1] = biological target: T1, EP2 (Homo sapiens, UniProt P43116); assay: EP2 cAMP functional assay; type: cell-based
EP2 [2] = biological target: T1, EP2; assay: EP2 binding assay
EP2 [3] = biological target: T1, EP2; assay: EP2 Ca2+ signal assay; type: cell-based

T1 sequence (P43116 whole entry): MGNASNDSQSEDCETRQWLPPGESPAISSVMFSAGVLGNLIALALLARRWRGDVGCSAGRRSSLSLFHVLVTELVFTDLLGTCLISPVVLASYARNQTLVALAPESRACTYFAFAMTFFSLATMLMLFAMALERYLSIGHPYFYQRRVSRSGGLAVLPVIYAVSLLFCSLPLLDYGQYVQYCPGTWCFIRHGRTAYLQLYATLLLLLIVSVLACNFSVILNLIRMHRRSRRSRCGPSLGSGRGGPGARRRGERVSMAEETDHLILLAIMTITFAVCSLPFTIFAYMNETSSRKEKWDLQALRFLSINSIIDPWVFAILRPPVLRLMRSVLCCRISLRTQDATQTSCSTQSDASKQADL

| Compound | EC50 (EP2 [1]) [nM] | EC50 (EP2 [2]) [nM] | EC50 (EP2 [3]) [nM] |
| --- | --- | --- | --- |
| CCCCCC(O)c1ccc(N2C(COCc3ccc(C(=O)O)s3)CCS2(=O)=O)cc1 (stereo not drawn) [Compound 15] | 115 | 2920 | 8320 |
| CCCCCC(=O)c1ccc(N2C(COCc3ccc(C(=O)O)s3)CCS2(=O)=O)cc1 (stereo not drawn) [Compound 17] | 98 | 1200 | 5420 |

Source: patent publication US7897629B2, “Therapeutic compounds” (Allergan, Inc., priority 2006, dated 2011)
